Data reported in patent US20080125498A1, “TREATMENT OF NEURODEGENERATIVE DISEASES AND CONDITIONS USING PAR1 ANTAGONISTS” (priority 2001, published 2008).
Ends that are not written are not given here.

What was measured:
cortical astrocytes = assay: Astrocyte proliferation by BrdU incorporation; format: cell-based, mouse; conditions: for number of BrdU-positive cells: astrocyte cultures from wild type mice, 3 or 30 micromolar, 24 hours
Experimental: Cortical astrocytes from wild type and PAR1−/− knockout mice were either untreated (control) or treated for 24 hours with a 3 or 30 micromolar concentration of the peptide TFLLR-NH2 (SEQ ID NO: 1), which selectively activates PAR1. Cells were pulse-labeled with BrdU for the final 2 hours of culture.

PAR1 [1] = assay: PI hydrolysis in hippocampal slices; format: cell-based, mouse; conditions: wild type hippocampus / hippocampal slices
Description: PAR1 is a seven transmembrane G-protein coupled receptor that stimulates G-alpha-q to initiate phosphatidyl inositol (PI) hydrolysis. To ensure that PAR1 is functional in regions of the brain that are subject to ischemic damage in the mouse transient focal ischemia model, we tested the ability of several activators of PAR1 to initiate PI hydrolysis (Chung et al., 1997) in the hippocampus and striatum.
Since tPA activates plasminogen to form plasmin, we tested whether exogenously applied tPA could activate endogenous plasminogen in brain slices to form plasmin and activate PAR1.

PAR1 [2] = assay: Free intracellular calcium in cultured astrocytes (Fluo-3 AM); format: cell-based, mouse
NMDA receptor [3] = assay: Whole cell patch recording of NMDA-evoked currents in hippocampal slice CA1 pyramidal neurons; format: cell-based, rat; conditions: for average peak potentiation by thrombin: 1.4 mM Mg2+, n=19
NR1 subunit [4] = assay: NMDA receptor subunit immunoblots of thrombin-treated brain membranes; format: biochemical, rat
Experimental: (§1) NMDA receptor subunit immunoblots. Human embryonic kidney (HEK) cells were maintained in DMEM supplemented with 0.5 mM glutamine, 1 mM pyruvate, penicillin, streptomycin, and 10% fetal bovine serum in a humidified environment with 5% CO2, and transfected with 1 microgram/ml of NR1 or 1:2 microgram/ml NR1:NR2 cDNA. Cells were washed in ice-cold HEPES buffered saline (HBS), scraped on ice, and membranes isolated by centrifugation at 12,000×g. […] Adult rat brain regions were dissected, frozen in liquid nitrogen, homogenized in ice-cold HEPES buffered saline (HBS), centrifuged, and stored at −20° C. Membranes were resuspended in HBS and treated with thrombin or buffer for 30 min at 37° C. Samples were centrifuged, and the membrane pellet resuspended in 2% sodium dodecylsulphate (SDS), 62.5 mM Tris, 10% glycerol, 5% beta-mercaptoethanol, 0.05% bromophenol blue (pH 6.8); some samples were treated with IOU DNase for 10 min at 37° C. SDS/polyacrylamide gel electrophoresis (SDS/PAGE) and protein blotting to Immobilon-P membranes was performed as described (Lau and Huganir, Differential tyrosine phosphorylation of N-methyl-D-aspartate receptor subunits. J Biol Chem 270: 20036-20041, 1995). Membranes were blocked for 30 min in 0.2 M Tris base, 1.37 M NaCl, pH 7.4, containing 5% nonfat dry milk, and incubated overnight at 4° C. in primary antibodies: NR1 mAb54.1 (gift from Dr. S. Heinemann, Salk Institute, La Jolla Calif.), NR1 alt-C-terminal (Upstate Biotechnology, Lake Placid, N.Y.), NR2A C-terminal (Chemicon, Temecula, Calif.), or NR2B C-terminal (Upstate Biotechnology). Membranes were washed 3×, and incubated with HRP-conjugated goat anti-mouse or goat anti-rabbit antibodies (1:10,000), washed 3×, and developed using enhanced chemiluminescence. The percent of receptor cleaved by thrombin was determined using densitometry.

NR1 subunit [5] = assay: as above; format: biochemical, rat; remark: listed apart in the source
PAR1 [6] = format: cell-based, rat
NR1 subunit [7] = molecular target: T1, NR1 subunit (Rattus norvegicus, UniProt P35439); assay: Thrombin cleavage of recombinant NR1 subunits in HEK 293 cells (immunoblot); format: biochemical; conditions: 10-1000 U/ml thrombin
T1 construct: expressed in transfected cells; host or cells: HEK 293 cells, transient transfection; isolated membranes treated with thrombin
Experimental: as §1, with “Membranes were blocked for 30 min in 0.2 M Tris base, 1.37 M NaCl, pH 7.4, containing 5% nonfat dry milk, and incubated overnight at 4° C. in primary antibodies: NR1 mAb54.1 (gift from Dr. S. Heinemann, Salk Institute, La Jolla Calif.), NR1 alt-C-terminal (Upstate Biotechnology, Lake Placid, N.Y.), NR2A C-terminal (Chemicon, Temecula, Calif.), or NR2B C-terminal (Upstate Biotechnology). Membranes were washed 3×, and incubated with HRP-conjugated goat anti-mouse or goat anti-rabbit antibodies (1:10,000), washed 3×, and developed using enhanced chemiluminescence.” left out

NMDA receptor [8] = assay: Two electrode voltage clamp of recombinant NMDA receptors with or without PAR1 in Xenopus oocytes; format: cell-based, Xenopus laevis
Experimental: Expression and recording of NMDA and PAR1 receptor function in Xenopus laevis oocvtes. cRNA was synthesized from linearized template cDNA according to manufacturer specifications (Ambion, Austin, Tex.). Xenopus oocytes were removed from ovaries of female frogs anesthetized with 0.3% 3-aminobenzoic acid ethylester. Groups of 20-30 stage V-VI oocytes were incubated in 292 U/ml Worthington (Freehold, N.J.) Type IV collagenase for 2 hours with slow shaking. The oocytes were rinsed in Barth's solution, and stored at 17° C. in Barth's solution supplemented with 100 microgram/ml gentamycin and 40 microgram/ml streptomycin. Control oocytes were injected with 3 ng NR1 subunit and 7 ng NR2B subunit. Other oocytes were injected with the NMDA receptor subunits plus 3 ng PAR1 cRNA. Two electrode voltage clamp recordings were made 3-7 days post-injection. Oocytes were continually perfused with recording solution (in mM, 90 NaCl, 1 KCl, 10 HEPES, pH 7.4) and held under voltage clamp at −30 to −50 mV with an OC-725B amplifier (Warner Instruments, Hamden, Conn.). Recording solution was supplemented with 1.0 mM CaCl2 during initial impalement of the oocytes and subsequently 0.5 mM BaCl2 during recording to reduce the calcium-activated chloride current endogenous to oocytes. […] NMDA receptor currents were evoked by 20 micromolar glutamate/10 micromolar glycine perfused for 0.5-1 minute. […] Expression of PAR1 protein was verified by a thrombin or SFLLRN-stimulated rapidly desensitizing inward current at −30 mV that reflects the Ca^2+-activated Cl^− current endogenous to the oocyte. To test the ability of thrombin to modify NMDA receptor function in oocytes, recordings of receptor function were made both before and after a 15-60 min incubation in recording solution supplemented with thrombin in Eppendorf tubes at room temperature. […] Oocytes with responses less than 50 nA were not included in the analysis.

NMDA receptor [9] = assay: Whole cell patch recording of NMDA-evoked currents in hippocampal CA1 pyramidal cells of wild-type and PAR1-/- mice; format: cell-based, mouse
hippocampal slices = assay: Transmitted light measurements in hippocampal slices (extracellular volume fraction); format: cell-based, rat; conditions: 3-7 U/ml thrombin, 10-20 minutes
Experimental: Rat hippocampal slices were prepared as described above, and were bathed in a submerged chamber with 0.5 micromolar TTX, and 3-7 U/ml thrombin in 0.5 micromolar TTX applied for 10-20 minutes. The intensity of transmitted light (450-490 nm) through hippocampal slices was monitored as an indication of extracellular volume fraction (Andrew and MacVicar, Imaging cell volume changes and neuronal excitation in the hippocampal slice. Neuroscience 62: 371-383, 1994). Images were recorded using a Princeton Micromax CCD camera (Trenton, N.J.; 0.2 sec exposure every 20 to 40 sec) and analyzed using Axon Imaging Workbench 2.1 software (Foster City, Calif.). Intensity was expressed as I/Io where Io is the intensity of transmitted light prior to treatment. Solutions were made hyperosmotic by addition of 30 mM mannitol, which can produce a 10% expansion of the extracellular volume fraction (McBain et al. Regional variation of extracellular space in hippocampus. Science 249: 674-677, 1990). Hypoosmotic solutions were obtained by addition of 10% v/v water.

**Q.** For “TFLLR-NH2 [specific PAR1 agonist peptide]”, which “number of BrdU-positive cells” value (cortical astrocytes) is on record?
**A.** increases the number of BrdU-positive cells

**Q.** What about the “number of BrdU-positive cells” value (cortical astrocytes; listed as TFLLR) of the same substance?
**A.** can stimulate astrocyte proliferation

**Q.** And the PI hydrolysis (PAR1 [1])?
**A.** increased PI hydrolysis

**Q.** And the free intracellular calcium (PAR1 [2]; cultured astrocytes from PAR1-/- knockout mice)?
**A.** does not increase free intracellular calcium

**Q.** What about the free intracellular calcium (PAR1 [2]; cultured astrocytes from wild type mice) of the same substance?
**A.** increases free intracellular calcium

**Q.** “bisindolylmaleimide [reference compound]” was tested. Which “potentiation of NMDA receptor currents by thrombin in presence of BIS” value (NMDA receptor [3]; BIS 10 microM in ACSF, 30 nM (3 U/ml) thrombin, n=10) did it give?
**A.** 1.20±0.13 fold

**Q.** And the “NMDA responses during preapplication of BIS” value (NMDA receptor [3]; BIS alone)?
**A.** unchanged

**Q.** What does the source list for hirudin [reference compound]?
**A.** potentiation by thrombin of NMDA responses in presence of hirudin (NMDA receptor [3]; 3 U/ml thrombin + 100 ATU hirudin, average potentiation 12-19 min post treatment, n=5): 0.96±0.23 fold; block of NR1 cleavage by 30 nM thrombin (NR1 subunit [4]; striatal membranes, 100 ATU hirudin): blocked cleavage

**Q.** pertussis toxin was tested. Which “inhibition of PAR1-induced astrocyte proliferation” value (cortical astrocytes; 24-hour pre-treatment, counting of BrdU-positive cells) did it give?
**A.** could be inhibited

**Q.** How did the “peak potentiation of NMDA responses” value (NMDA receptor [3]; 30 nM (3 U/ml) thrombin, -70 mV, within 20 minutes, n=21) turn out when thrombin was run?
**A.** 2.07±0.27 fold

**Q.** What about the “average peak potentiation by thrombin” value (NMDA receptor [3]; -40 mV) of the same substance?
**A.** 1.48±0.11 fold

**Q.** And the “average peak potentiation by thrombin” value (NMDA receptor [3]; -70 mV)?
**A.** 2.10±0.29 fold

**Q.** What about the “thrombin potentiation of the NMDA response” value (NMDA receptor [3]; cells excluded for low input resistance or increased series resistance, n=12) of the same substance?
**A.** 1.8±0.2 fold

**Q.** What about the thrombin-induced potentiation (NMDA receptor [3]; cells held at 0 mV, briefly stepped to -70 mV, n=7) of the same substance?
**A.** 2.7±0.7 fold

**Q.** And the NR1 subunits cleaved (NR1 subunit [4]; 1-3 micromolar thrombin, all brain regions except striatum)?
**A.** 100%

**Q.** What about the “molecular weight shift of NR2A or NR2B subunits” value (NR1 subunit [4]; brain membranes, 3-300 U/ml thrombin) of the same substance?
**A.** did not induce any observable molecular weight shift

**Q.** And the “cleavage of NR1 subunits” value (NR1 subunit [4]; cerebellar, cortical and brainstem membranes, 300 nM thrombin (30 U/ml))?
**A.** insensitive to cleavage

**Q.** What about the NR1 cleaved (NR1 subunit [4]; striatal membranes, 30 nM thrombin (3 U/ml)) of the same substance?
**A.** 50%

**Q.** And the “maximal observed cleavage of NR1” value (NR1 subunit [4]; striatum, 1-3 micromolar thrombin)?
**A.** 52%

**Q.** And the “predicted cleavage of NR1 protein” value (NR1 subunit [5]; 15 minute treatment of slices at 23 C, 3 U/ml, extrapolated assuming linear time, Q10 2.5)?
**A.** 1%

**Q.** And the “NR1 cleavage product in CA1 region microdissected from slices” value (NR1 subunit [5]; 15 minutes of 3 U/ml thrombin application at 23 C)?
**A.** no NR1 cleavage product was observed

**Q.** What about the NR1 subunit cleaved (NR1 subunit [5]; hippocampal membranes, 30 nM thrombin (3 U/ml), 1 hour at 37 C) of the same substance?
**A.** 20%

**Q.** What about the “Fluo-3 fluorescence in soma and dendrites” value (PAR1 [6]) of the same substance?
**A.** robust increase

**Q.** And the “cleavage of recombinant NR1-1b and NR1-1b/NR2B receptors” value (NR1 subunit [7])?
**A.** cleaved both homomeric NR1-1b receptors

**Q.** And the “potentiation of NR1-1a/NR2A receptors coexpressed with PAR1” value (NMDA receptor [8]; 3 nM thrombin, n=6)?
**A.** 1.68±0.11 fold

**Q.** And the “potentiation of NR1-1a/NR2A receptors coexpressed with PAR1” value (NMDA receptor [8]; 300 μM thrombin (so in the source), n=7)?
**A.** 1.37±0.08 fold

**Q.** What about the “current response amplitude after incubation” value (NMDA receptor [8]; 300-1000 nM thrombin, 60 minutes, n=7, buffer controls 78±5%) of the same substance?
**A.** 42±9%

**Q.** What about the “ratio of NMDA receptor-mediated current after to before application” value (NMDA receptor [8]; NR1-1a/NR2B, oocytes without PAR1, n=9) of the same substance?
**A.** 0.87±0.04

**Q.** What about the “PAR1 potentiation of NR1-1a(C798A)/NR2B receptors” value (NMDA receptor [8]; control oocytes lacking PAR1, n=5) of the same substance?
**A.** 0.98±0.05

**Q.** What about the “cleavage of NR1 subunit” value (NMDA receptor [8]; low concentrations of thrombin (0.3-3 nM)) of the same substance?
**A.** did not produce any cleavage

**Q.** And the “response amplitude of NR1/NR2A and NR1/NR2B receptors vs buffer” value (NMDA receptor [8]; oocytes lacking thrombin receptors, 3 U/ml, 15 minutes, 23 C)?
**A.** no significant difference

**Q.** And the “PAR1 potentiation of NR1-1a(C798A)/NR2B receptors” value (NMDA receptor [8]; oocytes with PAR1, n=7)?
**A.** 1.35±0.07

**Q.** And the “potentiation of NR2A containing receptors” value (NMDA receptor [8]; presence of 10 micromolar EDTA, n=12)?
**A.** 2.01±0.17 fold

**Q.** What about the “amplitude of NMDA receptor responses, NR1-1a with NR2c or NR2D” value (NMDA receptor [8]; thrombin activation of PAR1) of the same substance?
**A.** unaffected

**Q.** What about the NMDA receptor responses (NMDA receptor [9]; PAR1-/- C57B1/6 mice, thrombin application) of the same substance?
**A.** did not significantly increase

**Q.** What about the “potentiation of responses to pressure-applied NMDA plus glycine” value (NMDA receptor [9]; wild-type C57B1/6 mice, 3 U/ml thrombin) of the same substance?
**A.** robust potentiation

**Q.** And the PI hydrolysis (PAR1 [1])?
**A.** increased PI hydrolysis

**Q.** And the “intensity of transmitted light I/Io” value (hippocampal slices; stratum pyramidale)?
**A.** 1.00±0.01

**Q.** What about the “intensity of transmitted light I/Io” value (hippocampal slices; stratum radiatum) of the same substance?
**A.** 1.01±0.01
